Experimental findings from ChEMBL document CHEMBL2074357, “Identification and functional assessment of the novel murine organic anion transporter Oat5 (Slc22a19) expressed in kidney” (Am J Physiol Renal Physiol, 2004) are described below.

The Km is the concentration of substrate that gives half-maximal velocity.

Assay type in all cases: functional, cell-based
Data set [1] concerns the target T1, Solute carrier family 22 member 19 (Mus musculus) (UniProt Q8VCA0).
T1 sequence (whole entry): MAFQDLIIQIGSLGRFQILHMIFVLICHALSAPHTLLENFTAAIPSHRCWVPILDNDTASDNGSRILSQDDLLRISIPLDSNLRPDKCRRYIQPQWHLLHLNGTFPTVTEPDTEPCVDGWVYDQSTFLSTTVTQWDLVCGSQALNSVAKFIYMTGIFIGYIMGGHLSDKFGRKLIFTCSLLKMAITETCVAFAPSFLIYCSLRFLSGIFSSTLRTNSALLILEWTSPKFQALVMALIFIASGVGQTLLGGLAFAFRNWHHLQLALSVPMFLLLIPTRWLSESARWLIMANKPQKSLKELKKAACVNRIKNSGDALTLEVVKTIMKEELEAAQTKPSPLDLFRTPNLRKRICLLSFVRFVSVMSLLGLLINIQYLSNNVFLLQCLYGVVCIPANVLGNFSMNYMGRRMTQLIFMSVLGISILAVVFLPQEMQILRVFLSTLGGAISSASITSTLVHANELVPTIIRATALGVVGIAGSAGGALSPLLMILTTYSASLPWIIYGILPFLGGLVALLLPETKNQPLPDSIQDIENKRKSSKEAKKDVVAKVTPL
The experiment in a line: TP_TRANSPORTER: inhibition of (Ochratoxin A: 0.5uM) of 2,4-dichlorophenoxyacetic acid at a concentration of 100uM in Oat5-expressing oocytes. The note with it: Xenopus laevis, Oocyte. More on the design: scale not given: the % may be the effect or the level left.

The target in data set [2] is T1, Solute carrier family 22 member 19 (Mus musculus). The experiment in a line: TP_TRANSPORTER: inhibition of (Ochratoxin A: 0.5uM) of Estrone-3-sulfate at a concentration of 100uM in Oat5-expressing oocytes. Details: scale not given: the % may be the effect or the level left. The following applies: Xenopus laevis, Oocyte.
The target is the same in data set [3]. In words: TP_TRANSPORTER: inhibition of (Ochratoxin A: 0.5uM) of Probenecid at a concentration of 1000uM in Oat5-expressing Xenopus oocytes. More on the design: scale not given: the % may be the effect or the level left. The note with it: Xenopus laevis, Oocyte.
Substrate in data set [4]: C[C@@H]1Cc2c(Cl)cc(C(=O)N[C@@H](Cc3ccccc3)C(=O)O)c(O)c2C(=O)O1
The experiment in a line: TP_TRANSPORTER: uptake in Oat5-expressing oocytes. The note with it: Xenopus laevis; Oocyte.

On to `O=C(O)COc1ccc(Cl)cc1Cl`, for which the Activity in data set [1] was 25%.
For `C[C@]12CC[C@@H]3c4ccc(OS(=O)(=O)O)cc4CC[C@H]3[C@@H]1CCC2=O`, the Activity in data set [2] was 5%.
Regarding `CCCN(CCC)S(=O)(=O)c1ccc(C(=O)O)cc1`, the Activity in data set [3] is 25%.

B1: Solute carrier family 22 member 19 (Mus musculus), Q8VCA0 (protein)
chain: MAFQDLIIQIGSLGRFQILHMIFVLICHALSAPHTLLENFTAAIPSHRCWVPILDNDTASDNGSRILSQDDLLRISIPLDSNLRPDKCRRYIQPQWHLLHLNGTFPTVTEPDTEPCVDGWVYDQSTFLSTTVTQWDLVCGSQALNSVAKFIYMTGIFIGYIMGGHLSDKFGRKLIFTCSLLKMAITETCVAFAPSFLIYCSLRFLSGIFSSTLRTNSALLILEWTSPKFQALVMALIFIASGVGQTLLGGLAFAFRNWHHLQLALSVPMFLLLIPTRWLSESARWLIMANKPQKSLKELKKAACVNRIKNSGDALTLEVVKTIMKEELEAAQTKPSPLDLFRTPNLRKRICLLSFVRFVSVMSLLGLLINIQYLSNNVFLLQCLYGVVCIPANVLGNFSMNYMGRRMTQLIFMSVLGISILAVVFLPQEMQILRVFLSTLGGAISSASITSTLVHANELVPTIIRATALGVVGIAGSAGGALSPLLMILTTYSASLPWIIYGILPFLGGLVALLLPETKNQPLPDSIQDIENKRKSSKEAKKDVVAKVTPL
Turning to B1, the Km in data set [4] came to 2 µM.
